These results are taken from US20170021002A1, “AUGMENTATION OF CANCER AND CANCER ENDOTHELIAL VACCINE IMMUNOGENICITY BY HISTONE DEACETYLASE INHIBITORS” (Batu Biologics, Inc., priority 2015, published 2017).

Data set [1] deals with allogeneic responding lymphocytes (responder PBMC). Description: Mixed lymphocyte reaction, proliferation by [3H]-thymidine incorporation. Format: cell-based, human. Particulars: placental endothelial stimulator cells pretreated with the agent; FIG. 1a. Here is the method:
(§1) Peripheral blood mononuclear cells (PBMC) were isolated from buffy coats of healthy blood donors (Sanquin, Rotterdam, the Netherlands) by density gradient centrifugation using Ficoll-Paque PLUS (density 1.077 g/ml; GE Healthcare, Uppsala, Sweden). Cells were frozen at −150° C. until further use in RPMI-1640 medium with GlutaMAX™-I (Life Technologies) supplemented with 1% P/S, 10% human serum (Sanquin) and 10% dimethylsulphoxide (DMSO; Merck, Hohenbrunn, Germany).
(§2) Mixed lymphocyte reactions (MLR) were set up with 5×10^5 responder PBMC and 5×10^3 (1:100), 5×10^4 (1:10), […] γ-irradiated (10 Gy) ValloVax™ cells in round-bottomed 96-well plates (Nunc, Roskilde, Denmark). MLR were cultured in MEM-α supplemented with 2 mM L-glutamine, 1% P/S and 10% heat-inactivated human serum for 4 days in a humidified atmosphere with 5% CO2 at 37° C.
Cell proliferation was assessed by thymidine incorporation, [^3H]-thymidine (0.25 μCi/well; PerkinElmer, Groningen, the Netherlands) was added on day 4, incubated for 8 h and its incorporation was measured using the Wallac 1450 MicroBeta Trilux (PerkinElmer).
It was previously reported that ValloVax™, a placental endothelial derived cellular vaccine stimulates immunity to proliferating endothelium, resulting in tumor regression. […]
A general note: Dividing cells build labelled thymidine or BrdU into new DNA.

Data set [2] deals with mixed lymphocyte reaction (PBMC with ValloVax™ cells). Kind of data set: Cytokine ELISA of mixed lymphocyte reaction supernatants. Format: cell-based, human. Particulars: ValloVax™ treated with VPA. Here is the method: as §1, §2
For cytokine analysis supernatant was collected on day two of culture and analyzed by ELISA (R & D Systems) as per manufacturer's instructions.

Data set [3] relates to ValloVax™ cells. Kind of data set: Viability of ValloVax™ stimulator cells in MLR (CellTiter). Format: cell-based, human. The conditions noted are these: ValloVax™ cells treated with VPA, cultured with allogeneic responding cells, FIG. 2. Here is the method: Cells were incubated with or without 1 mM VPA for 48 hours.
Depletion of T cells, B cells and NK cells was performed with Magnetic Activated Cell (MACS) isolation kits from Milteny Biotec following the manufacturer's instructions.
Viability was assessed by CellTiter Viability kit from Promega following the manufacturer's instructions.
as §2

The subject of data set [4] is ValloVax™ cells cultured with NK-92 cells. Description: Killing of VPA treated ValloVax™ cells by NK-92 cell line. Particulars: FIG. 4. Format: cell-based, human. Here is the method:
Cells were incubated with or without 1 mM VPA for 48 hours. NK-92 cells were added to the target cells as effector cells, and the cells were co-cultured for 4 h 37° C. To block NKG2D on NK-92 cells, 10 μg/ml anti-NKG2D mAb or mouse IgG1 isotype control antibody were added to the NK cells 30 min before co-culture. Viability was assessed by CellTiter Viability kit from Promega following the manufacturer's instructions.

In data set [5] the test system is Lewis Lung Carcinoma (LLC). Kind of data set: Established Lewis Lung Carcinoma tumor model. Particulars: for antitumor activity / efficacy: VPA systemically administered (100 mg/kg intraperitoneally every third day) to animals receiving ValloVax™, 100 mg/kg; for antitumor activity / efficacy / tumor killing activity / therapeutic efficacy: FIG. 5; for tumor killing activity / therapeutic efficacy: ValloVax™ pretreated in vitro with VPA, compared to standard ValloVax™, LLC bearing mice. The class given is in vivo, C57BL/6 mice. An excerpt: Female C57BL/6 aged 8-12 weeks were purchased from The Jackson Laboratory. Animals were housed under conventional conditions at the Animal Care Facility, Institute for Cellular Immunology, and were cared for in accordance with the guidelines established by the Canadian Council on Animal Care. Lewis Lung Carcinoma (LLC), a murine lung carcinoma originating from C57/BL6 mice was obtained from American Type Culture Collection (ATCC). The cells were maintained in RPMI1640 supplemented with 10% fetal bovine serum, 2 mM glutamine (Gibco-BRL, Life Technologies, Inc.) and were passaged by trypsinization once cells reached 75% confluence. The cell line was cultured at 37°0 C. in a 5% CO2 incubator under fully humidified conditions.
For induction of tumor growth, 5×10^5 LLC cells, American Type Culture Collection (Manassas, Va.) cells were injected subcutaneously into the hind limb flank. Four weekly vaccinations of 5×10^5 test cells were administered subcutaneously on the contralateral side to which tumors were administered. Tumors were allowed to grow for 2 weeks, subsequently to which one injection of ValloVax™ or VPA-pretreated ValloVax™ was given. Valproic acid was administered every third day at a concentration of 100 mg/kg intraperitoneally. Tumor growth was assessed every 3 days by two measurements of perpendicular diameters by a caliper, and animals were sacrificed when tumors reached a size of 1 cm in any direction. Tumor volume was calculated by the following formula: (the shortest diameter^2×the longest diameter)/2.

The subject of data set [6] is ValloVax™ cells. Description: Ex vivo cytotoxicity of NK cells from in vivo valproic acid treated mice to ValloVax™ cells. The class given is cell-based. The conditions noted are these: NK cells isolated from in vivo valproic acid treated mice.
Data set [7] deals with LLC cells. Description: Ex vivo cytotoxicity of NK cells from in vivo valproic acid treated mice to LLC cells. The class given is cell-based. Particulars: NK cells isolated from in vivo valproic acid treated mice.
Data set [8] deals with non-small cell lung cancer (NSCLC). The conditions noted are these: patients diagnosed with metastatic disease; cited from earlier work.

Regarding `CCCC(CCC)C(=O)O` [VPA, Valproic acid], the “Proliferation of allogeneic responding lymphocytes (allostimulatory activity)” value in data set [1] is “not”. For the same molecule, in data set [2] (FIG. 1d), the “IL-10 in MLR” value was “no significant upregulation”. In data set [2] (supernatants from MLR at 48 hours, FIG. 1b), the “production of IFN-gamma in MLR” value is on record as “substantially increased”. The “production of IL-18 in MLR” value in data set [2] (supernatants from MLR at 48 hours, FIG. 1c) is on record as “substantially increased”. Moreover, the “viability of the ValloVax™ cells in MLR” value is “dose-dependent loss of viability” in data set [3] and “killing of ValloVax™ in vitro by an NK cell dependent mechanism” in data set [3] (listed as valproic acid). Further, in data set [4], the “toxicity to VPA treated ValloVax™ cells” value is given as “toxicity was observed”. In addition, the “antitumor activity / efficacy” value in data set [5] is on record as “synergistic antitumor activity”; in data set [5] (listed as valpoic acid), “enhanced antitumor efficacy”; in data set [5] (listed as valproic acid) it was “augmented efficacy against lung cancer”. Moreover, the “tumor killing activity / therapeutic efficacy” value in data set [5] is listed as “did not significantly augment”; in data set [5] (listed as valproic acid), “did not augment in vivo efficacy”. In addition, the Survival result in data set [5] (in vivo administration of VPA and ValloVax, established lung cancer model) was “Significantly Enhances Survival”. In addition, the “cytotoxicity of NK cells to ValloVax™ cells ex vivo” value in data set [6] is reported as “enhanced cytotoxicity”. Further, the “cytotoxicity of NK cells to LLC cells” value in data set [7] was “enhanced cytotoxicity”.

`Nc1nc2[nH]cc(CCc3ccc(C(=O)N[C@@H](CCC(=O)O)C(=O)O)cc3)c2c(=O)[nH]1` [pemetrexed]: in data set [8], the “median overall survival (OS)” value is reported as 17 months.

B1: interferon gamma: cytokine used to pretreat placental endothelial cells (100 IU per ml) (protein, UniProt P01579 24-161, looked up)
Interferon gamma: QDPYVKEAENLKKYFNAGHSDVADNGTLFLGILKNWKEESDRKIMQSQIVSFYFKLFKNFKDDQSIQKSVETIKEDMNVKFFNSNKKKRDDFEKLTNYSVTDLNVQRKAIHELIQVMAELSPAAKTGKRKRSQMLFRG
B1: the “Proliferation of allogeneic responding lymphocytes (allostimulatory activity)” value in data set [1] was “substantially enhanced”.
